Experiments:
Assay in all cases: relative viability (nuclei count vs DMSO), 5 days (fraction); higher = more cells survive
XMD13-2 + Olaparib = compound: C1CC1C(=O)NC2=NNC3=C2C=CC(=C3)C4=CC(=CC=C4)C(=O)NC5CC5 [XMD13-2] + O=C(c1cc(Cc2n[nH]c(=O)c3ccccc23)ccc1F)N1CCN(C(=O)C2CC2)CC1 [Olaparib] (partner 8 µM)
In short: (§1)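 Relative viability equals treated-well nuclei counts divided by vehicle-well nuclei counts. Counts came from 4× images of lung cancer cell lines grown in 1536-well plates for 5 days after pin-tool dosing on the day after seeding. Dosing used one drug alone or a fixed anchor-drug dose plus five library-drug doses (not always all listed) in √10 steps, and values are medians of duplicate plates.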

Dasatinib + Luminespib = compound: Cc1nc(Nc2ncc(C(=O)Nc3c(C)cccc3Cl)s2)cc(N2CCN(CCO)CC2)n1 [Dasatinib] + CCNC(=O)c1noc(-c2cc(C(C)C)c(O)cc2O)c1-c1ccc(CN2CCOCC2)cc1 [Luminespib] (partner 0.01 µM)
In short: as §1

XMD13-2 + Linsitinib = compound: C1CC1C(=O)NC2=NNC3=C2C=CC(=C3)C4=CC(=CC=C4)C(=O)NC5CC5 [XMD13-2] + C[C@]1(O)C[C@@H](c2nc(-c3ccc4ccc(-c5ccccc5)nc4c3)c3c(N)nccn32)C1 [Linsitinib] (partner 1 µM)
In short: as §1

Dasatinib + Tozasertib = compound: Cc1nc(Nc2ncc(C(=O)Nc3c(C)cccc3Cl)s2)cc(N2CCN(CCO)CC2)n1 [Dasatinib] + Cc1cc(Nc2cc(N3CCN(C)CC3)nc(Sc3ccc(NC(=O)C4CC4)cc3)n2)n[nH]1 [Tozasertib] (partner 0.1 µM)
In short: as §1

Cell Line | relative viability (XMD13-2 + Olaparib; first compound 0.05 µM) | relative viability (XMD13-2 + Olaparib; first compound 0.1581 µM) | relative viability (XMD13-2 + Olaparib; first compound 0.5 µM) | relative viability (XMD13-2 + Olaparib; first compound 1.581 µM) | relative viability (XMD13-2 + Olaparib; first compound 5 µM) | relative viability (Dasatinib + Luminespib; first compound 0.005 µM) | relative viability (Dasatinib + Luminespib; first compound 0.01581 µM) | relative viability (Dasatinib + Luminespib; first compound 0.05 µM) | relative viability (Dasatinib + Luminespib; first compound 0.1581 µM) | relative viability (Dasatinib + Luminespib; first compound 0.5 µM) | relative viability (XMD13-2 + Linsitinib; first compound 0.05 µM) | relative viability (XMD13-2 + Linsitinib; first compound 0.1581 µM) | relative viability (XMD13-2 + Linsitinib; first compound 0.5 µM) | relative viability (XMD13-2 + Linsitinib; first compound 1.581 µM) | relative viability (XMD13-2 + Linsitinib; first compound 5 µM) | relative viability (Dasatinib + Tozasertib; first compound 0.005 µM) | relative viability (Dasatinib + Tozasertib; first compound 0.01581 µM) | relative viability (Dasatinib + Tozasertib; first compound 0.05 µM) | relative viability (Dasatinib + Tozasertib; first compound 0.1581 µM) | relative viability (Dasatinib + Tozasertib; first compound 0.5 µM)
LK-2 | 0.831 | 0.911 | 0.807 | 0.642 | 0.668 | 0.188 | 0.194 | 0.156 | 0.158 | 0.195 | 0.715 | 0.518 | 0.554 | 0.676 | 0.422 | 0.16 | 0.15 | 0.141 | 0.173 | 0.148
LOU-NH91 | 0.976 | 0.958 | 0.97 | 0.869 | 0.944 | 0.348 | 0.348 | 0.285 | 0.259 | 0.27 | 0.985 | 0.981 | 0.966 | 0.876 | 1.1 | 0.721 | 0.652 | 0.637 | 0.556 | 0.307
LU99A | 0.288 | 0.277 | 0.248 | 0.273 | 0.263 | 0.229 |  | 0.247 | 0.143 | 0.166 | 0.609 | 0.552 | 0.591 | 0.445 | 0.463 | 0.233 |  | 0.243 | 0.209 | 0.23
LXF-289 | 1.28 | 1.03 | 1.15 | 0.99 | 1.05 | 0.745 | 0.564 | 0.648 | 0.334 | 0.138 | 0.941 | 0.942 | 0.967 | 0.984 | 0.986 | 0.193 | 0.0886 | 0.0932 | 0.0636 | 0.0438
NCI-H23 | 0.336 | 0.342 | 0.365 | 0.3 | 0.281 | 0.233 | 0.195 | 0.217 | 0.19 | 0.187 | 0.558 | 0.579 | 0.624 | 0.537 | 0.58 | 0.318 | 0.309 | 0.347 | 0.302 | 0.318
NCI-H322M | 0.807 | 0.848 | 0.553 |  | 1.04 | 0.779 | 0.491 | 0.38 | 0.288 | 0.232 | 0.963 | 0.864 | 1.07 | 0.891 | 0.891 | 0.465 | 0.356 | 0.289 | 0.232 | 0.176
NCI-H358 | 0.72 | 0.618 | 0.667 | 0.718 | 0.61 | 0.215 | 0.169 | 0.253 | 0.262 | 0.136 | 0.759 | 0.764 | 0.826 | 0.663 | 0.449 | 0.0888 | 0.0863 | 0.101 | 0.084 | 0.0689
NCI-H441 | 0.545 | 0.578 | 0.534 | 0.477 | 0.495 | 0.372 | 0.307 | 0.225 | 0.196 | 0.193 | 0.771 | 0.415 | 0.558 | 0.64 | 0.398 | 0.594 | 0.539 | 0.625 | 0.467 | 0.375
NCI-H460 | 0.546 | 0.493 | 0.412 | 0.526 | 0.566 | 0.0311 | 0.031 | 0.0288 | 0.02 | 0.0207 | 1.01 | 0.953 | 0.973 | 0.72 | 0.997 | 0.299 | 0.425 | 0.302 | 0.338 | 0.177
NCI-H520 | 0.333 | 0.325 | 0.498 | 0.36 | 0.307 | 0.184 | 0.209 | 0.221 | 0.194 | 0.197 | 1.09 | 0.975 | 1.01 | 0.881 | 0.492 | 0.356 | 0.284 | 0.294 | 0.239 | 0.179
NCI-H596 | 0.703 | 0.729 | 0.738 | 0.704 | 0.769 | 0.809 | 0.691 | 0.776 | 0.552 | 0.478 | 1.12 | 1.13 | 1.01 | 1.05 | 1.22 | 0.766 | 0.671 | 0.87 | 0.507 | 0.393
NCI-H647 | 0.622 | 0.435 | 0.545 | 0.602 | 0.234 | 0.141 | 0.0794 | 0.137 | 0.117 | 0.0952 | 1.33 | 1.22 | 1.15 | 1.17 | 1.09 | 0.265 | 0.288 | 0.128 | 0.0973 | 0.0474
NCI-H650 | 0.379 | 0.379 | 0.424 | 0.462 | 0.356 | 0.771 | 0.777 | 0.852 | 0.401 | 0.213 | 0.983 | 0.857 | 0.899 | 0.718 | 0.865 | 0.705 | 0.665 | 0.755 | 0.619 | 0.42
NCI-H661 | 0.728 | 0.671 | 0.739 | 0.767 | 0.66 | 0.99 | 1.02 | 1 | 0.844 | 0.657 | 0.67 | 0.708 | 0.58 | 0.555 | 0.398 | 0.348 | 0.34 | 0.324 | 0.323 | 0.295
NCI-H727 | 0.679 | 0.711 | 0.683 | 0.74 | 0.647 | 0.255 | 0.425 | 0.334 | 0.237 | 0.244 | 0.219 | 0.25 | 0.439 | 0.312 | 0.25 | 0.607 | 0.523 | 0.606 | 0.379 | 0.185
NCI-H838 | 0.865 | 0.749 | 0.817 | 0.774 | 0.699 | 0.265 | 0.24 | 0.196 | 0.189 | 0.158 | 1.14 | 1.03 | 1.05 | 1.06 | 0.985 | 0.279 | 0.292 | 0.245 | 0.179 | 0.2
